Entries after “also recorded” stand apart in the source; their conditions may differ.
Molecular target: T1, TRPC5 (Homo sapiens, UniProt Q9UL62)
T1 construct: expressed in transfected cells; host or cells: HEK293 FITR (inducible expression)
T1 sequence (Q9UL62 1-973): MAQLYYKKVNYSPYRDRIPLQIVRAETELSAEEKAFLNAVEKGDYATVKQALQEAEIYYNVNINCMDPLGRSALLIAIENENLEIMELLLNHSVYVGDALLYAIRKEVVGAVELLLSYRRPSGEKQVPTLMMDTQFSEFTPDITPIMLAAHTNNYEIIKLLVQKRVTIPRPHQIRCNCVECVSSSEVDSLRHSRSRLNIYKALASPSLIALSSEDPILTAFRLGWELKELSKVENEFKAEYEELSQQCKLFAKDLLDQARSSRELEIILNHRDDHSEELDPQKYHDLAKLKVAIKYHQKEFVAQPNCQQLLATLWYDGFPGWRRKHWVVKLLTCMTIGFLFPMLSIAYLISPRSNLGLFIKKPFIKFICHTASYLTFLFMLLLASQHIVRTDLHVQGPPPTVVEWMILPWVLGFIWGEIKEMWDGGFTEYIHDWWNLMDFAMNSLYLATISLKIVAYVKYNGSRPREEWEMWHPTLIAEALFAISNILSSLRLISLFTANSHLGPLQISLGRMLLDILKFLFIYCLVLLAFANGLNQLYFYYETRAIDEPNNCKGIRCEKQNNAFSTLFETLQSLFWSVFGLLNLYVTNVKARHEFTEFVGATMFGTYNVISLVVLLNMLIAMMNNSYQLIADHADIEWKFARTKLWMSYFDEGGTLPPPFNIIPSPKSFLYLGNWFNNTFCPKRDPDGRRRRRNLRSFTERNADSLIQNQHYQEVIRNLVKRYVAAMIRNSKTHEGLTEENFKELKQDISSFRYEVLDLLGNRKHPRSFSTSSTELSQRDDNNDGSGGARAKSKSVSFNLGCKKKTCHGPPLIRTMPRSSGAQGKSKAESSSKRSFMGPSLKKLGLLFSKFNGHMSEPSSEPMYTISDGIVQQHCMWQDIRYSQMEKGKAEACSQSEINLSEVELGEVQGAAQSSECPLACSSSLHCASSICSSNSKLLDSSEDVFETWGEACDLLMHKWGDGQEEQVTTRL
Test: FLIPR Ca2+ influx measurement, trypsin-stimulated TRPC5 HEK293 cells
Type: cell-based
Settings: 200 nM trypsin
Description: In general, cells are provided which express a TRPC channel. Such cells can be produced using genetic methods known to a person skilled in the art. After having induced the expression of the TRPC channel, cells are usually plated into e.g. microtiter plates and grown. Usually the cells grow at the bottom of multiwell plates and are fixed. Thereafter, the cells are generally washed and loaded with a dye in a suitable loading buffer, preferably with a fluorescent dye such as fluo4am. After having removed the loading buffer, the cells are incubated with the test compound or modulator, in particular with a biochemical or chemical test compound as described above, e.g. in the form of a chemical compound library. Ca^2+ measurements can be carried out using e.g. a Fluorescence Imaging Plate Reader (FLIPR). To stimulate Ca^2+ influx through the TRPC channel a channel activator such as OAG should generally be applied.
When these experiments were performed, no direct physiological stimuli of TRPC4 and TRPC5 were known. Therefore, both channels had to be stimulated indirectly, e.g. by application of trypsin, a protease-activated receptor (PAR) stimulating protease. […] Kinetics and quantity of calcium store release in cells treated with 30 μM norgestimate were not changed compared to untreated cells. […]

For `C#C[C@]1(OC(C)=O)CC[C@H]2[C@@H]3CCC4=C/C(=N/O)CC[C@@H]4[C@H]3CC[C@@]21CC` [norgestimate, D-17β-acetoxy-B-ethyl-17α ethinyl-gon-4-en-3-one oxime], the “inhibitory effect on TRPC5-mediated Ca2+ influx” value (30 μM norgestimate) was “only small inhibitory effects; also recorded: slightly reduced” and the IC50 (FLIPR, n=4) was greater than 30 µM.

— patent US8455469B2, “Use of norgestimate as a selective inhibitor of TRPC3, TRPC6 and TRPC7 ion channels” (Sanofi, priority 2007, dated 2013)
